Measurements: paper PMC11984586, “A novel spider toxin as a selective antagonist of the Kv1 subfamily of voltage-gated potassium channels through gating modulation” (The Journal of Biological Chemistry, 2025)
Where two headings read alike, the source gives them in different places. Bridge positions count the residues as written; N and C are the ends. Peptide text beside a SMILES is read from it.

Legend:
Kv1.3 G344A mutant = assay: Whole-cell patch clamp, Kv1.3 alanine mutant; type: cell-based, human; settings: 100 nM MrVIII, +30 mV; n = 4–7
Experimental: (§1) MrVIII inhibits Kv1 channels by stabilizing the voltage sensor in its resting state. […] To investigate this hypothesis, we constructed a series of alanine mutants in the S3-S4 region of the Kv1.3 channel, covering residues I336 to L363, to identify critical interactions between the peptide and the channel (Fig. 6A). […] For the remaining mutants that retained functional current expression, we evaluated the inhibitory activity of 100 nM MrVIII. […] The lack of conserved multiple interaction sites may explain the absence of activity on other Kv subfamily channels (Fig. S3). In summary, this study identified key amino acid residues in the S3-S4 region of the Kv1.3 channel that interact with MrVIII, providing a foundation for further exploration into the peptide's mechanism of action.
(§2) The cDNA of hKv1.1, hKv1.2, hKv1.3, rKv1.4, hKv1.5, mKv1.6, and hKv1.7 were subcloned into mammalian expression vectors pcDNA3.1 or pCMV-blank vectors, as well as other plasmids described previously ([35]). Channel mutants were generated by site-directed mutations. Briefly, the parental channel plasmid was amplified using a pair of oppositely directed primers harboring the designed mutation site, with KOD Fx (TOYOBO Co, Ltd). The resulting PCR mix was treated with FastDigest DpnI (Thermo Fisher Scientific) to remove the methylated template. Ten microliters of the digested product was then used to transform 100 μl E. coli DH5α competent cells. Transformants were randomly picked and sequenced to confirm the presence of the intended mutation.
(§3) CHO-K1 cells were selected for expressing Kv channels due to their lack of endogenous Kv channels, while HEK293 or ND7/23 cells were used for Nav and Cav channel expression. CHO-K1 cells were cultured in a Dulbecco's modified Eagle's medium/Ham's F-12 nutrient mixture (DMEM-F12) medium, and HEK293T and ND7/23 cells in DMEM medium, all supplemented with 10% fetal bovine serum and 1% penicillin-streptomycin (all from Gibco, Thermo Fisher Scientific, Inc) under standard conditions (37 °C, 5% CO2, and saturated humidity). These cell lines were purchased from Stem Cell Bank, Chinese Academy of Sciences. Channel plasmids were cotransfected with pEGFP-N1 (encoding GFP) into the respective cells using lipofectamine 2000, following the manufacturer's instructions (Invitrogen, Thermo Fisher Scientific, Inc.). Nav1.9-GFP plasmid was transfected into ND7/23 using the X-tremeGENE HP DNA Transfection Reagent (Roche). After 4 to 6 h transfection, cells were seeded onto poly-lysine–coated coverslips, and 24 to 36 h later, transfected cells were ready for patch-clamp analysis.
(§4) Patch clamp experiments were conducted using an electrophysiology platform comprising a MultiClamp 700B amplifier and an Axon Digidata 1550 AD/DA convertor (Axon Instruments). Data acquisition was performed with pClamp 10.5 software (Axon Instruments). All experiments were performed at room temperature.
(§5) For Kv current recordings, the bath solution contained (in mM) the following: 140 NaCl, 5 KCl, 1 MgCl2, 2 CaCl2, 10 glucose, and 10 Hepes (pH 7.3, adjusted with NaOH), and the pipette solution contained (in mM) the following: 140 KCl, 2.5 MgCl2, 11 EGTA, and 10 Hepes (pH 7.3, adjusted with KOH). Series resistance was maintained below 10 MΩ and compensated to 80%. Concentration–response curves were fitted by the Hill equation to determine the toxin's potency. Whole cell conductance (G) at each depolarizing voltage (V) was determined using the equation: G = I/(V−Vrev), where I is the current amplitude, and Vrev is the reversal potential. The reversal potential for K^+ current was estimated to be −85.6 mV using the Nernst equation. G-V curves were obtained by plotting the normalized conductance as a function of V and fitted by the Boltzmann equation: y = 1/(1+ exp((Va-V)/k)), which Va is the midpoint voltage, V is the test potential, and k is the slope factor. The steady-state fast inactivation of Kv1.3 was measured using a two-pulses protocol. […]

Kv1.3/Y339A = assay: Whole-cell patch clamp, Kv1.3 alanine mutant; type: cell-based, human
Experimental: as §1, §2, §3, §4, §5

Kv1.3 E349A mutant = assay: Whole-cell patch clamp, Kv1.3 alanine mutant; type: cell-based, human; settings: 100 nM MrVIII, +30 mV; n = 4–7
Experimental: as §1, §2, §3, §4, §5

Kv1.3 Q355A mutant = assay: Whole-cell patch clamp, Kv1.3 alanine mutant; type: cell-based, human; settings: 100 nM MrVIII, +30 mV; n = 4–7
Experimental: as §1, §2, §3, §4, §5

Kv1.3 T345A mutant = assay: Whole-cell patch clamp, Kv1.3 alanine mutant; type: cell-based, human; settings: 100 nM MrVIII, +30 mV; n = 4–7
Experimental: as §1, §2, §3, §4, §5

Kv1.3 S359A mutant = assay: Whole-cell patch clamp, Kv1.3 alanine mutant; type: cell-based, human; settings: 100 nM MrVIII, +30 mV; n = 4–7
Experimental: as §1, §2, §3, §4, §5

Cav3.2-3.3 = assay: Selectivity patch clamp, non-Kv1 channels; type: cell-based; settings: 10 μM MrVIII; n = 3–5
Experimental: as §3, §4

Cav1.3 = assay: Selectivity patch clamp, non-Kv1 channels; type: cell-based; settings: 10 μM MrVIII; n = 3–5
Experimental: as §3, §4

Cav2.2 = assay: Selectivity patch clamp, non-Kv1 channels; type: cell-based; settings: 10 μM MrVIII; n = 3–5
Experimental: as §3, §4

Nav1.4-1.5 = assay: Selectivity patch clamp, non-Kv1 channels; type: cell-based; settings: 10 μM MrVIII; n = 3–5
Experimental: as §3, §4

Nav1.2 = assay: Selectivity patch clamp, non-Kv1 channels; type: cell-based; settings: 10 μM MrVIII; n = 3–5
Experimental: as §3, §4

Nav1.7-1.9 = assay: Selectivity patch clamp, non-Kv1 channels; type: cell-based; settings: 10 μM MrVIII; n = 3–5
Experimental: as §3, §4

[1] = molecular target: T1, Kv1.7/I386C mutant (Kv1.7∗) (Homo sapiens, UniProt Q96RP8, I386C); assay: Gating-current recording, Kv1.7* in HEK293T cells; type: cell-based; settings: for inhibition at 10 µM: HEK-293T
T1 construct: expressed in transfected cells; host or cells: HEK293T
T1 sequence (Q96RP8 whole entry I386C): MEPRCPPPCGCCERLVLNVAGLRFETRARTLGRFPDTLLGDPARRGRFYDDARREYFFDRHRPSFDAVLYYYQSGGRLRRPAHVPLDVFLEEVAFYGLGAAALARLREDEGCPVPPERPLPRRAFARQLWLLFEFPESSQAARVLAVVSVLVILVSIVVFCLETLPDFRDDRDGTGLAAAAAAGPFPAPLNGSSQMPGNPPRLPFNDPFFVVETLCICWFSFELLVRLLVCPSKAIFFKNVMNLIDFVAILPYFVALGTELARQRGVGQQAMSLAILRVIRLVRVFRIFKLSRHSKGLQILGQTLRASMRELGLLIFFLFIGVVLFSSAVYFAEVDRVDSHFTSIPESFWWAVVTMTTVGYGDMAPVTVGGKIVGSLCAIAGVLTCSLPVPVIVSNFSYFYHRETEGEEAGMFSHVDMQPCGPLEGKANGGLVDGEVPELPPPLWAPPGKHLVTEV
Experimental: as §2, §3, §4
Gating currents were recorded by transfecting HEK293T cells with a saturating dose of plasmid to ensure maximal channel expression. The Kv1.3/I472C and Kv1.7/I386C mutants were used to record the IgOFF, minimizing slow voltage sensor return as reported in previous studies ([28]). The bath solution contained (in mM) the following: 140 NMDG, 50 Hepes, 2 CaCl2, 2 MgCl2, 0.1 EDTA, and 0.01 CsCl (pH 7.3, adjusted with methanesulfonic acid), and the pipette solution contained (in mM) the following: 140 NMDG, 1 NMDG-Cl, 50 HF, 5 EGTA, and 50 Hepes (pH 7.3, adjusted with methanesulfonic acid). Gating charge movement (Q) was determined by integrating the area under the IgON and IgOFF traces, representing voltage sensor movement in response to depolarizing pulses. The data were normalized and plotted against voltage to generate Q-V curves, which were fitted using a Boltzmann function to estimate the voltage dependence of charge movement.

Compound: CC[C@H](C)[C@@H]1NC(=O)[C@H](Cc2ccc(O)cc2)NC(=O)[C@H](CCC(N)=O)NC(=O)[C@@H]2CCCN2C(=O)[C@@H]2CSSC[C@H](NC(=O)[C@H](C)NC(=O)[C@H](CO)NC(=O)[C@H](CCC(=O)O)NC(=O)[C@H](CCC(=O)O)NC(=O)[C@@H](N)[C@@H](C)O)C(=O)NCC(=O)NCC(=O)N[C@@H](Cc3ccccc3)C(=O)N[C@@H](CC(N)=O)C(=O)N[C@@H](C)C(=O)N[C@@H](CCCNC(=N)N)C(=O)N[C@H]3CSSC[C@H](NC1=O)C(=O)N[C@@H](CCCCN)C(=O)NCC(=O)N[C@@H](Cc1c[nH]c4ccccc14)C(=O)N[C@@H](CCCNC(=N)N)C(=O)N[C@@H]([C@@H](C)O)C(=O)N[C@@H](CCCCN)C(=O)N[C@@H](CCCNC(=N)N)C(=O)N[C@H](C(=O)N[C@@H](CC(C)C)C(=O)N[C@@H](CC(N)=O)C(=O)N1CCC[C@H]1C(=O)O)CSSC[C@H](NC(=O)[C@H](CCCCN)NC(=O)[C@H](Cc1c[nH]cn1)NC(=O)[C@H](CC(C)C)NC(=O)[C@@H]1CCCN1C3=O)C(=O)N2 [MrVIII] (H-TEESACGGFNARCPLHKCCPQYICKGWRTKRCLNP-OH; disulfide 6-19, 13-24, 18-32; N-terminus and C-terminus assumed)
- reduction in inhibitory potency vs WT Kv1.3, G344A (Kv1.3 G344A mutant): more than 5 fold
- decrease of inhibitory potency vs WT Kv1.3, Y339A (Kv1.3/Y339A; 100 nM MrVIII on mutant compared with 10 nM on WT Kv1.3, +30 mV, n = 4–7): more than 10 fold
- inhibition of peak current of Kv1.3/Y339A (Kv1.3/Y339A; 10 μM MrVIII, +30 mV, mean ± SD, n = 4–6, SD): 24.9 ± 6.0%
- reduction in inhibitory potency vs WT Kv1.3, E349A (Kv1.3 E349A mutant): more than 5 fold
- reduction in inhibitory potency vs WT Kv1.3, Q355A (Kv1.3 Q355A mutant): more than 5 fold
- reduction in inhibitory potency vs WT Kv1.3, T345A (Kv1.3 T345A mutant): more than 5 fold
- reduction in inhibitory potency vs WT Kv1.3, S359A (Kv1.3 S359A mutant): more than 5 fold
- inhibition of Cav3.2-3.3 currents (Cav3.2-3.3): did not remarkably inhibit
- inhibition of Cav1.3 current (Cav1.3): did not remarkably inhibit
- inhibition of Cav2.2 current (Cav2.2): did not remarkably inhibit
- inhibition of Nav1.4-1.5 currents (Nav1.4-1.5): did not remarkably inhibit
- inhibition of Nav1.2 current (Nav1.2): did not remarkably inhibit
- inhibition of Nav1.7-1.9 currents (Nav1.7-1.9): did not remarkably inhibit
- Va of Q-V curve of Kv1.7∗ after toxin ([1]; 500 nM MrVIII, before toxin −6.4 ± 2.9 mV, mean ± SD, n = 5, SD): −4.3 ± 3.8 mV
- effect on IgON of Kv1.7∗ ([1]; 10 μM MrVIII, 500 ms depolarization): completely inhibited
- IC50 ([1]; +30 mV for 50 ms, held at −100 mV, HEK293T, mean ± SD, n = 11, SD, read-out: IC50, inhibition of IgON current of Kv1.7∗): 214 ± 91.8 nM
- inhibition at 10 µM ([1]; 10 μM MrVIII, 50 ms depolarization at +30 mV, mean ± SD, n = 11, SD, read-out: inhibition of IgOFF of Kv1.7∗): ~74.1%
- inhibition at 10 µM ([1]; 10 μM MrVIII, 500 ms depolarization, mean ± SD, n = 5, SD, read-out: inhibition rate of IgOFF of Kv1.7∗): 13.1 ± 5.5%
